{"source": "patent US6369225B1", "about": "“Compounds having activity as inhibitors of cytochrome P450RAI” (Allergan Sales, Inc., priority 2000, dated 2002)", "key": {"[1]": {"target": "T1, RARβ (Homo sapiens, UniProt P10826)", "T1 sequence (P10826 1-455)": "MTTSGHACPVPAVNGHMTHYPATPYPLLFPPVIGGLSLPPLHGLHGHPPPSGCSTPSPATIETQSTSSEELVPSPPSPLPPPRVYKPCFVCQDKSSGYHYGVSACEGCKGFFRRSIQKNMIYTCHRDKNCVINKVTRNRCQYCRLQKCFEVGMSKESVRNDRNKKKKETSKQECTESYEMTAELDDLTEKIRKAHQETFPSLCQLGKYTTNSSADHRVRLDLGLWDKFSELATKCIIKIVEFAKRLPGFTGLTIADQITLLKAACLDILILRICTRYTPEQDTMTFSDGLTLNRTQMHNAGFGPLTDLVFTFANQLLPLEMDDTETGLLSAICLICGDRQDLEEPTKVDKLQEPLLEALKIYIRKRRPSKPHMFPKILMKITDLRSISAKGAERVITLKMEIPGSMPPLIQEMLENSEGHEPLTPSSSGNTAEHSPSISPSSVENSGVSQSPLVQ", "assay": "ligand binding assay, RARβ", "settings": "Kd line of EC50/(EFFICACY)/Kd, read-out: RAR Kd β", "from_the_text": "(§1) Assays described below measure the ability of a compound to bind to, and/or activate various retinoid receptor subtypes. When in these assays a compound binds to a given receptor subtype and activates the transcription of a reporter gene through that subtype, then the compound is considered an agonist of that receptor subtype. […] In the below described assays the ability of the compounds to bind to RARα, RARβ, RARγ, RXRα, RXRβ and RXRγ receptors, and the ability or inability of the compounds to activate transcription of a reporter gene through these receptor subtypes can be tested.\nA holoreceptor transactivation assay and a ligand binding assay which measure the antagonist/agonist like activity of the compounds of the invention, or their ability to bind to the several retinoid receptor subtypes, respectively, are described in published PCT Application No. WO WO93/11755 (particularly on pages 30-33 and 37-41) published on Jun. 24, 1993, the specification of which is also incorporated herein by reference. […] The results obtained in this assay are expressed in EC50 numbers, as they are also in the chimeric receptor transactivation assay. The results of ligand binding assay are expressed in Kd numbers. (See Cheng et al. Biochemical Pharmacology Vol. 22 pp 3099-3108, expressly incorporated herein by reference.)"}, "[2]": {"target": "T2, P450RAI-1 (Homo sapiens, UniProt O43174)", "T2 construct": "expressed in transfected cells; host or cells: HeLa cells, stably transfected, hygromycin selection", "T2 sequence (O43174 1-497)": "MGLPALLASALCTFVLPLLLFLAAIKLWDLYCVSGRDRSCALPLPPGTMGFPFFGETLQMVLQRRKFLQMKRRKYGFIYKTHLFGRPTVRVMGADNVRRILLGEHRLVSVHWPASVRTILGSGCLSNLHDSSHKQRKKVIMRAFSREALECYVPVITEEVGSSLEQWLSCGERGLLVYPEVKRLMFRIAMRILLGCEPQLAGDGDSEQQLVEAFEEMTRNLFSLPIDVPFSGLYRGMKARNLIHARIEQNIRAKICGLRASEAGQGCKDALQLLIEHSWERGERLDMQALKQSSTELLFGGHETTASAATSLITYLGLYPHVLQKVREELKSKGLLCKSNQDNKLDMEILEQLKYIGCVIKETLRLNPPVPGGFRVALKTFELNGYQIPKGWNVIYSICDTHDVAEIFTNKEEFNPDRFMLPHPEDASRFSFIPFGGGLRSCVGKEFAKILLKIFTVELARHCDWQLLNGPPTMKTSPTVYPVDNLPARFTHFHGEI", "assay": "P450RAI-1 cell-based inhibitor assay", "settings": "P450RAI-1 stably transfected HeLa cells, [3H]-RA metabolism, 3 hours at 37° C.; read-out: P450RAI INHIBITION DATA INTACT HELA IC50", "summary_of_the_method": "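HeLa cells stably expressing the enzyme (5×10^5/well) incubated 3 h at 37 °C with 0.05 μCi [3H]-all-trans-RA and compound at 10, 1 or 0.1 μM in triplicate. Water-soluble radioactive metabolites counted by scintillation; IC50 derived manually from log-transformed data.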"}, "[3]": {"test_system": "skin of hairless mice", "assay": "topical skin irritation test in hairless mice", "type": "in vivo, mouse", "settings": "topical in acetone, once daily days 1 through 5, mean ±SD, range 0-21", "from_the_text": "Mice were housed individually throughout the dosing period.\nDoses are disclosed as nmol/25 g.\nThe grading scale used is as follows:\nValues can range from 0-9.\nValues can range from 0-8."}, "[4]": {"target": "T3, RARγ (Homo sapiens, UniProt P13631)", "T3 sequence (P13631 1-454)": "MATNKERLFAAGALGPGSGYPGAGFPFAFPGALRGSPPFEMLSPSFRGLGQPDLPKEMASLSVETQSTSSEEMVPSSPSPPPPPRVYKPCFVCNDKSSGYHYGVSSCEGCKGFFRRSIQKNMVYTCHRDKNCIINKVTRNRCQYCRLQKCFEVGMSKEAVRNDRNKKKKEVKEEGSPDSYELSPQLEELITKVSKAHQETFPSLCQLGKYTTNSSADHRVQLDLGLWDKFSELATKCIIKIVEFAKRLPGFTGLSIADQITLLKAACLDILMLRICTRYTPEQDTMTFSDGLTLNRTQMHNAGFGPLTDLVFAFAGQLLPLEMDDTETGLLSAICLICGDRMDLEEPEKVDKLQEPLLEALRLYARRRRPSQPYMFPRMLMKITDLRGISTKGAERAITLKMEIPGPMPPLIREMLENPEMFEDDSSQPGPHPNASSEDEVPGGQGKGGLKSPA", "assay": "ligand binding assay, RARγ", "settings": "Kd line of EC50/(EFFICACY)/Kd, read-out: RAR Kd γ", "from_the_text": "as §1\n(§2) A holoreceptor transactivation assay and a ligand binding assay which measure the antagonist/agonist like activity of the compounds of the invention, or their ability to bind to the several retinoid receptor subtypes, respectively, are described in published PCT Application No. WO WO93/11755 (particularly on pages 30-33 and 37-41) published on Jun. 24, 1993, the specification of which is also incorporated herein by reference. A detailed experimental procedure for holoreceptor transactivations has been described by Heyman et al. Cell 68, 397-406, (1992); Allegretto et al. J. Biol. Chem. 268, 26625-26633, and Mangelsdorf et al. The Retinoids: Biology, Chemistry and Medicine, pp 319-349, Raven Press Ltd., New York, which are expressly incorporated herein by reference. The results obtained in this assay are expressed in EC50 numbers, as they are also in the chimeric receptor transactivation assay. The results of ligand binding assay are expressed in Kd numbers. (See Cheng et al. Biochemical Pharmacology Vol. 22 pp 3099-3108, expressly incorporated herein by reference.)\n(§3) The results if the ligand binding assay for several preferred compounds of the invention are included in Table 1."}, "[5]": {"target": "T4, RARα (Homo sapiens, UniProt P10276)", "T4 sequence (P10276 183-462 limits assumed)": "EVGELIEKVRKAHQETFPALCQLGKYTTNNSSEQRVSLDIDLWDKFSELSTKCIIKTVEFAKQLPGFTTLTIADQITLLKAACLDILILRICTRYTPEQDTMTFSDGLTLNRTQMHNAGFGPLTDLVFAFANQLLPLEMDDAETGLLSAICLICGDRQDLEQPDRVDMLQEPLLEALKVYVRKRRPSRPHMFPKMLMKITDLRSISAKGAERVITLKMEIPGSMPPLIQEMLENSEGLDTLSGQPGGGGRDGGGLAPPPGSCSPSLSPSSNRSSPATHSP", "assay": "chimeric receptor transactivation assay, RARα", "type": "cell-based", "settings": "EC50 line of EC50/(EFFICACY)/Kd, read-out: RAR EC50 α", "from_the_text": "as §1\n(§4) As far as specific assays are concerned, a chimeric receptor transactivation assay which tests for agonist-like activity in the RARα, RARβ, AND RARγ, receptor subtypes, and which is based on work published by Feigner P. L. and Holm M. (1989) Focus, 112 is described in detail in U.S. Pat. No. 5,455,265. The specification of U.S. Pat. No. 5,455,265 is hereby expressly incorporated by reference. The numeric results obtained with several preferred compounds of this invention in this assay are shown below in Table 1."}, "[6]": {"target": "T5, RARγ (Homo sapiens, UniProt P13631)", "T5 sequence (P13631 185-419 limits assumed)": "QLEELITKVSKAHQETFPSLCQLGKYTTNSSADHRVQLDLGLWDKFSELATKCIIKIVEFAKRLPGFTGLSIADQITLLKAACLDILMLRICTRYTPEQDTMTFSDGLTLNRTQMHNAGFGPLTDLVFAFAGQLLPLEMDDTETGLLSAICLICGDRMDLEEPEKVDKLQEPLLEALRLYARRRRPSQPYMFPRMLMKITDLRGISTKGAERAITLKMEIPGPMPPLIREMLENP", "assay": "chimeric receptor transactivation assay, RARγ", "type": "cell-based", "settings": "EC50 line of EC50/(EFFICACY)/Kd, read-out: RAR EC50 γ", "from_the_text": "as §1, §4"}, "[7]": {"target": "T6, RARβ (Homo sapiens, UniProt P10826)", "T6 sequence (P10826 183-417 limits assumed)": "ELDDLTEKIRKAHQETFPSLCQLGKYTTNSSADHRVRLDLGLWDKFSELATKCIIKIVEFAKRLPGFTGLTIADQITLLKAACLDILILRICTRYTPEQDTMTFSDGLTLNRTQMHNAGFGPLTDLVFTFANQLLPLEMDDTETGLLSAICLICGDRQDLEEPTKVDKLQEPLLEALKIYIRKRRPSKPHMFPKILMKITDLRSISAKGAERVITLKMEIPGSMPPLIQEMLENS", "assay": "chimeric receptor transactivation assay, RARβ", "type": "cell-based", "settings": "EC50 line of EC50/(EFFICACY)/Kd, read-out: RAR EC50 β", "from_the_text": "as §1, §4"}, "[8]": {"target": "T7, RARα (Homo sapiens, UniProt P10276)", "T7 sequence (P10276 1-462)": "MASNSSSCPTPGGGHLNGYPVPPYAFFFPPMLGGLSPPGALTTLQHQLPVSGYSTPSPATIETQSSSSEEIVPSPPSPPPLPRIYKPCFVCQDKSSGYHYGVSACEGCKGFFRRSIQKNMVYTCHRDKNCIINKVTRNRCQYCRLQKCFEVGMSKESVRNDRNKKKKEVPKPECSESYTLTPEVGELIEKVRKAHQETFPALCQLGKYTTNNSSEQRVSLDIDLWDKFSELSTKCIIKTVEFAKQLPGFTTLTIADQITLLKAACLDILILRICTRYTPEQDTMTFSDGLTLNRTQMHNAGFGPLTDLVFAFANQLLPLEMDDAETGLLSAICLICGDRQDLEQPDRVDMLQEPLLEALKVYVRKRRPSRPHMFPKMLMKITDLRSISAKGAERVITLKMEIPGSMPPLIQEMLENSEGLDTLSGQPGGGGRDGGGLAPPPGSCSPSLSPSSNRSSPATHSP", "assay": "ligand binding assay, RARα", "settings": "Kd line of EC50/(EFFICACY)/Kd, read-out: RAR Kd α", "from_the_text": "as §1, §2, §3"}}}
{"compound": "CC1(C)CC(C)(C)c2cc(C#Cc3ccc(CC(=O)O)c(F)c3)cc(C3CC3)c2O1", "note": "[Compound 38, [4-(8-Cyclopropyl-2,2,4,4-tetramethyl-chroman-6-yl-ethynyl)-2-fluorophenyl]acetic Acid]", "values": [{"measurement": "Kd", "setting": "[1]", "result": 5320, "unit": "nM"}, {"measurement": "IC50", "setting": "[2]", "result": 25, "unit": "nM"}, {"measurement": "Cutaneous Toxicity Score (Blackjack Score)", "setting": "[3]; 100 nmole (nmol/25 g)", "result": "1 ± 1"}, {"measurement": "Cutaneous Toxicity Score (Blackjack Score)", "setting": "[3]; 1000 nmole (nmol/25 g)", "result": "10 ± 1"}, {"measurement": "Kd", "setting": "[4]", "result": 2880, "unit": "nM"}]}
{"compound": "CC1(C)CCC(=O)c2ccc(C#Cc3ccc(C(=O)O)c(F)c3)cc21", "note": "[Compound 10, 2-Fluoro-4-(8,8-dimethyl-5-oxo-5,6,7,8-tetrahydro-naphthalen-2yl-ethynyl)benzoic Acid]", "values": [{"measurement": "EC50", "setting": "[5]", "result": 57, "unit": "nM"}, {"measurement": "IC50", "setting": "[2]", "result": 700, "unit": "nM"}, {"measurement": "EC50", "setting": "[6]", "result": 6, "unit": "nM"}, {"measurement": "EC50", "setting": "[7]", "result": 0.3, "unit": "nM"}]}
{"compound": "CC1(C)CC(C)(C)c2cc(C#Cc3ccc(CC(=O)O)cc3)cc(C3CC3)c2O1", "note": "[Compound 36, [4-(8-Cyclopropyl-2,2,4,4-tetramethyl-chroman-6-yl-ethynyl)phenyl]acetic Acid]", "values": [{"measurement": "Kd", "setting": "[8]", "result": 13000, "unit": "nM"}, {"measurement": "Kd", "setting": "[1]", "result": 4900, "unit": "nM"}, {"measurement": "IC50", "setting": "[2]", "result": 33, "unit": "nM"}, {"measurement": "Cutaneous Toxicity Score (Blackjack Score)", "setting": "[3]; 100 nmole (nmol/25 g)", "result": "1 ± 1"}, {"measurement": "Cutaneous Toxicity Score (Blackjack Score)", "setting": "[3]; 1000 nmole (nmol/25 g)", "result": "11 ± 0"}, {"measurement": "Kd", "setting": "[4]", "result": 492, "unit": "nM"}]}
{"compound": "CN(C1CC1)C1CCC(C)(C)c2cc(C#Cc3ccc(C(=O)O)c(F)c3)ccc21", "note": "(stereo not drawn) [Compound 13, 4-[5-(Cyclopropyl-methyl-amino)-8,8-dimethyl-5,6,7,8-tetrahydro-naphthalene-2-yl-ethynyl]-2-fluoro Benzoic Acid]", "values": [{"measurement": "IC50", "setting": "[2]", "result": 3100, "unit": "nM"}, {"measurement": "EC50", "setting": "[6]", "result": 116, "unit": "nM"}, {"measurement": "EC50", "setting": "[7]", "result": 3.2, "unit": "nM"}]}
